Assay results taken from US20230203026A1, “PESTICIDAL COMPOSITIONS AND METHODS” (CORTEVA AGRISCIENCE LLC, priority 2017, published 2023).

Legend:
[1] = system: beet armyworm (Spodoptera exigua, LAPHEG) ("BAW"); experiment: Insecticidal test for beet armyworm, 128-well diet tray assay; assay type: in vivo; details: 168 h, 50 μg/cm^2 of test compound on artificial diet, second instar BAW larvae, 25° C., five to seven days, average of eight wells, read-out: BAW % Control (or Mortality) rating
Description: Insecticidal test for beet armyworm (Spodoptera exigua, LAPHEG) (“BAW”)
(§1) Bioassays on beet armyworm (BAW; Spodoptera exigua: Lepidoptera) are conducted using a 128-well diet tray assay. One to five second instar BAW larvae are placed in each well (3 mL) of the diet tray that had been previously filled with 1 mL of artificial diet to which 50 μg/cm^2 of the test compound (dissolved in 50 μL of 90:10 acetone-water mixture) had been applied (to each of eight wells) and then allowed to dry. Trays are covered with a clear self-adhesive cover, vented to allow gas exchange, and held at 25° C., 14:10 light-dark for five to seven days. Percent mortality is recorded for the larvae in each well; activity in the eight wells is then averaged.

[2] = system: Cabbage Looper (Trichloplusia ni, TRIPNI) ("CL"); experiment: Insecticidal test for cabbage looper, 128-well diet tray assay; assay type: in vivo; details: Trichoplusia ni, 168 h; 50 μg/cm^2 of test compound on artificial diet; second instar CL larvae; 25° C.; five to seven days; average of eight wells; read-out: CL % Control (or Mortality) rating
Description: Insecticidal Test for Cabbage Looper (Trichloplusia ni, TRIPNI) (“CL”)
as §1, with “cabbage looper (CL; Trichloplusia ni:” for “beet armyworm (BAW; Spodoptera exigua:”, “CL” for “BAW”

Row | Structure (SMILES) | mortality at 50 µg/cm2 [1] [%] | mortality at 50 µg/cm2 [2] [%]
1 | Cc1ccc(C(C)C)c(N2C(=O)CS/C2=N\C(=O)NOCc2ccc(-c3ncn(-c4ccc(OC(F)(F)C(F)(F)F)cc4)n3)cc2)c1 [A33, (Z)-1-(3-(2-Isopropyl-5-methylphenyl)-4-oxothiazolidin-2-ylidene)-3-((4-(1-(4-(perfluoroethoxy)phenyl)-1H-1,2,4-triazol-3-yl)benzyl)oxy)urea] | 50 to 100 | 50 to 100
2 | COc1ccc(CC(F)(F)F)c(N2C(=O)CS/C2=N\C(=O)NOCc2ccc(-c3ncn(-c4ccc(OC(F)(F)F)cc4)n3)cc2)c1 [A25, (Z)-1-(3-(5-Methoxy-2-(2,2,2-trifluoroethyl)phenyl)-4-oxothiazolidin-2-ylidene)-3-((4-(1-(4-(trifluoromethoxy)phenyl)-1H-1,2,4-triazol-3-yl)benzyl)oxy)urea] | 50 to 100 | 50 to 100
3 | CCCc1ccc(OC)cc1N1C(=O)CS/C1=N\C(=O)NOCc1ccc(-c2ncn(-c3ccc(OC(F)(F)F)cc3)n2)cc1 [A23, (Z)-1-(3-(5-Methoxy-2-propylphenyl)-4-oxothiazolidin-2-ylidene)-3-((4-(1-(4-(trifluoromethoxy)phenyl)-1H-1,2,4-triazol-3-yl)benzyl)oxy)urea] | 50 to 100 | 50 to 100
4 | Cc1ccc(C(C)C)c(N2C(=O)CS/C2=N\C(=O)ON(C)Cc2ccc(-c3ncn(-c4ccc(OC(F)(F)F)cc4)n3)cc2)c1 [A39, (Z)-3-(2-isopropyl-5-methylphenyl)-2-((((methyl(4-(1-(4-(trifluoromethoxy)phenyl)-1H-1,2,4-triazol-3-yl)benzyl)amino)oxy)carbonyl)imino)thiazolidin-4-one] | 50 to 100 | 50 to 100
5 | CC(C)c1ccc(Cl)cc1N1C(=O)CS/C1=N\C(=O)NOCc1ccc(-c2ncn(-c3ccc(OC(F)(F)F)cc3)n2)cc1 [A32, (Z)-1-(3-(5-Chloro-2-isopropylphenyl)-4-oxothiazolidin-2-ylidene)-3-((4-(1-(4-(trifluoromethoxy)phenyl)-1H-1,2,4-triazol-3-yl)benzyl)oxy)urea] | 50 to 100 | 50 to 100
6 | CC(NNC(=O)/N=C1\SCC(=O)N1c1cc(Cl)ccc1OC(F)(F)F)c1ccc(-c2ncn(-c3ccc(OC(F)(F)F)cc3)n2)cc1 (stereo not drawn) [A5, (Z)—N-(3-(5-chloro-2-(trifluoromethoxy)phenyl)-4-oxothiazolidin-2-ylidene)-2-(1-(4-(1-(4-(trifluoromethoxy)phenyl)-1H-1,2,4-triazol-3-yl)phenyl)ethyl)hydrazine-1-carboxamide] | 50 to 100 | 50 to 100
7 | Cc1ccc(C(F)(F)F)c(N2C(=O)CS/C2=N\C(=O)NN(C)C(C)c2ccc(-c3ncn(-c4ccc(OC(F)(F)F)cc4)n3)cc2)c1 (stereo not drawn) [A37, (Z)-2-Methyl-N-(3-(5-methyl-2-(trifluoromethyl)phenyl)-4-oxothiazolidin-2-ylidene)-2-(1-(4-(1-(4-(trifluoromethoxy)phenyl)-1H-1,2,4-triazol-3-yl)phenyl)ethyl)hydrazine-1-carboxamide] | 50 to 100 | 50 to 100
8 | Cc1ccc(OCC(F)(F)F)c(N2C(=O)CS/C2=N\C(=O)NNC(C)c2ccc(-c3ncn(-c4ccc(OC(F)(F)F)cc4)n3)cc2)c1 (stereo not drawn) [A6, (Z)—N-(3-(5-Methyl-2-(2,2,2-trifluoroethoxy)phenyl)-4-oxothiazolidin-2-ylidene)-2-(1-(4-(1-(4-(trifluoromethoxy)phenyl)-1H-1,2,4-triazol-3-yl)phenyl)ethyl)hydrazine-1-carboxamide] | 50 to 100 | 50 to 100
9 | CC(ONC(=O)/N=C1\SCC(=O)N1c1cc(Cl)ccc1OCC(F)(F)F)c1ccc(-c2ncn(-c3ccc(OC(F)(F)F)cc3)n2)cc1 (stereo not drawn) [A20, (Z)-1-(3-(5-Chloro-2-(2,2,2-trifluoroethoxy)phenyl)-4-oxothiazolidin-2-ylidene)-3-(1-(4-(1-(4-(trifluoromethoxy)phenyl)-1H-1,2,4-triazol-3-yl)phenyl)ethoxy)urea] | 50 to 100 | 50 to 100
